Assay results taken from patent US10106577B2, “Agonists of neurotrophin receptors and their use as medicaments” (BIONURE FARMA, S.L., priority 2010, dated 2018).
Each block holds one molecule with its values, some of them ahead of it.

How the values were obtained:
[1] = PAMPA model of passive BBB permeability; format: in vitro ADME; details: PAMPA; passive transport; pH 7.4; 18 hrs; read-out: Effective permeability (pe), PAMPA
Protocol: PAMPA is used as an in vitro model of passive BBB permeability. An artificial membrane immobilized on a filter is placed between a donor and acceptor compartment. At the start of the test, a drug is introduced in the donor compartment. Following the permeation period, the concentration of the drug in the donor and acceptor compartments are measured using UV spectroscopy. Therefore the permeability of any compound with a UV chromophore can be determined by this method.
The tested compound stock solutions were diluted 200-fold in universal buffer at pH 7.4 and added to the donor wells. The filter membrane was coated with PBL in dodecane and the acceptor well was filled with pH 7.4 buffer. The acceptor filter plate was carefully put on the donor plate to form a ‘sandwich’ (consisting of the aqueous donor with test the compound on the bottom, an artificial lipid membrane in the middle, and an aqueous acceptor on the top). The test compound diffused from the donor well through the lipid membrane and into the acceptor well. The ‘sandwich’ was left undisturbed for 18 hrs while the permeation occurred. The concentration of the test compound in the acceptor, the donor, and the reference wells was determined using the UV plate reader. Effective permeability (Pe) of each compound was calculated by using the pION PSR4p software. Samples were analyzed in triplicate and the average of the three runs was reported. Quality control standards were run with each sample set to monitor the consistency of the analysis set.

PC12 cells [2] = assay: Dose response differentiation assay in PC12 cell line; format: cell-based; details: 100 ng/ml; after 3 days of treatment
Protocol: Stock of PC12 cultures were maintained in Ham's F12 medium supplemented with 2.5% fetal bovine serum (FBS), 15% of horse serum (HS) and 1% penicillin/streptomycin. The cell culture was maintained in 5% CO2 at 37° C.
PC12 cell differentiation was assessed by treating the cells with all the test compounds (G79, G80, and G81) at different testing concentration (2-20-100 ng/ml and 2-20-50 μg/ml). The cells were first plated into collagen-coated 24-wells plates with 2.5% FBS in the medium to be de-differentiated. After 72 hrs, the test compounds were added and NGF (Sigma Aldrich; 100 ng/ml) as positive control of differentiation. The number of differentiated cells, with neurite processes greater than two cell bodies in length, is counted after 3 days of treatment. The cell count is done in three randomly selected fields with 100 cells.

PC12 cells [3] = assay: Secretagogue activity assay (PC12 differentiation with antibody anti-NGF); format: cell-based
Protocol: To assess if the tested compounds, G79, G80, and G81, act as secretagogues, inducing neurotrophic activity through the synthesis of NGF, PC12 cells were plated into collagen-coated 24-wells plates with only 2.5% FBS and after 72 hrs the cells were treated with the tested compounds (each one at 100 ng/ml) together with antibody anti-NGF (1 μg/ml, AbCam). After three days of treatment, the differentiation was evaluated. The cell count was done in three randomly selected fields with 100 cells.

PC12 cells [4] = assay: Synergistic activity assay (PC12 differentiation in combination with NGF); format: cell-based; details: NGF alone 100 ng/ml
Protocol: To evaluate if the small molecules G79, G80, and G81 interfere with the maximal activity of NGF or lead to additive effects, PC12 cells were plated into collagen-coated 24-wells plates with 2.5% FBS and treated after 72 h with the small chemicals (each one at 100 ng/ml) in combination with NGF at the concentration of 100 ng/ml. In the same experiment PC12 cells were treated with the small molecules or NGF alone, as controls. The number of differentiated cells was evaluated after three days of treatment. The cell count was done in three randomly selected fields with 100 cells.

PC12 cells [5] = assay: Receptor activation assay (PC12 differentiation with anti-TrkA antibody); format: cell-based
Protocol: The hypothesis that G79, G80, and G81 can act through the binding to the extracellular portion of TrkA (binding site) and activate the tyrosine kinase receptor was tested by treating the PC12 cells with the small chemicals in combination with the antibody anti-TrkA or the K252a, a tyrosine kinase inhibitor. For this purpose PC12 cells were plated into collagen-coated 24-wells plates with 2.5% FBS and after 72 hrs were incubated with the small molecules alone or in combination with anti-TrkA antibody (AbCam, 1:2000) or K252a. NGF (100 ng/ml) was used as control and added alone or in combination with anti-TrkA antibody or K252a. The number of differentiated cells was evaluated after three days of treatment. The cell count was done in three randomly selected fields with 100 cells.

PC12 cells [6] = assay: Signalling inhibition assays (PC12 differentiation with LY294002 or PD98059); format: cell-based
Protocol: To evaluate if the transduction pathway induced by G79, G80, and G81 involves AKT and ERK activation, PC12 cell were treated with the test compounds in the presence of LY294002, an inhibitor of PI3K (an upstream activator of AKT) and PD98059, an inhibitor of MAPK kinase (an upstream activator of ERK). For this purpose, PC12 cells were plated into collagen-coated 24-wells plates with 2.5% FBS and after 72 hrs the cells were treated with the small molecules in combination with LY294002 (Sigma Aldrich, 10 μM) or PD98059 (Sigma Aldrich, 50 μM). NGF (100 ng/ml) was used as control and added alone or in combination with the inhibitors.

[7] = system: retinal ganglion cells (RGC); assay: Glaucoma model, count of retinal ganglion cells; format: in vivo, Sprague Dawley rats; details: first experiment; eye drops, NGF 200, G79 200 and 400 μg/ml
Protocol: 12 Sprague Dawley rats (4 months of age) were anesthetized with […] and subjected to hypertonic saline solution injection into the episcleral vein of the right eye. Intraocular pressure (IOP) was measured before the operation and was monitored one time a week using a TonoLab for 7 weeks. Treatment with G79 was begun one week after glaucoma induction by topical application at the conjunctive. Two different experiments were performed.
In the first experiment, G79 was dissolved into physiological solution and was used at two different concentration (200 μg/ml and 400 μg/ml). NGF was used as positive control (200 μg/ml) and the physiological solution, used to dissolve all the molecules, was subministered as placebo. The animals were divided into 4 groups (3 animals in each group): glaucoma-G79 200 μg/ml; glaucoma-G79 […]; glaucoma-NGF; glaucoma-placebo. The left eye was used as the control without glaucoma. In both experiments, seven weeks after glaucoma induction, animals were sacrificed by overdose of anaesthetic and their eyes were taken and fixed in 4% of PFA. The eyes were included in paraffin and cut into 20 μm sections to be used for histological studies (hematoxilin-eosin staining). The cell count of the number of retinal ganglion cells (RGC) was performed randomly in ten different fields for each eye.
Rats were injected with a hypertonic solution in the eye that induced high intraocular pressure for five weeks. Animals were treated with eye drops of NGF ([…]), G79 ([…]) or placebo every day for five weeks. Animals with glaucoma and treated with placebo (saline) have a significant decrease in the number of retinal ganglion cells compared with control.
In the second experiment, G79 at the concentration of 200 μg/ml was used. The objective of this second experiment was to compare the efficacy of G79 to Timolol, the most common therapy for glaucoma that works by decreasing the intraocular pressure. Also in this experiment, a combination treatment with G79 and Timolol was performed. […]

NSC-34 cells = assay: In vitro model of ALS, serum deprivation of motoneuron-like cells (MTT); format: cell-based, mouse; details: G-CSF 2 μg/ml; serum deprivation 48 h
Protocol: Mouse motoneuron-like cells NCS-34 were cultured in DMEM (Gibco) supplemented with 10% heat inactivated FBS and 1% penicillin/streptomycin. The cell culture was maintained in a humidified atmosphere of 95% air and CO2 at 37° C.
The nutritional deprivation stress in motorneurons was conducted as described previously in Masahito T. et al., J. Neuropathol. Exp. Neurol. 65(8):816-825 (2006). To assess the effect of trophic stress condition on ALS, the presence of apoptosis was investigated using serum deprivation. NSC-34 cells were seeded in 24-well poly-lysinated plates at 30,000 cells/well and preincubated for 24 h in DMEM plus 10% FBS with various doses of G79, G80, and G81 (20 ng/ml, 100 ng/ml, 2 μg/ml, 20 μg/ml, 50 μg/ml), and G-CSF (2 μg/ml) or BDNF (20 ng/ml) which both were used as positive controls (Masahito T. et al., ibid; Elliot J. L., Neurobiology of Disease 6:310-320 (1999)). Then, the medium was removed and replaced with fresh DMEM without FBS. After 48 h, cell viability was assayed by MTT assay, as described previously.

Molecule: NGF: homodimeric protein from the neurotrophin family; positive control of differentiation and survival
number of differentiated cells in a field of 100 cells (PC12 cells [2]): 16.1±1.9 cells
number of differentiated cells for each field (PC12 cells [3]; 100 ng/ml together with antibody anti-NGF (1 μg/ml)): 12.8±6.3
number of differentiated cells for each field (PC12 cells [3]; 100 ng/ml, treatment alone): 20.7±7.1
number of differentiated cells (PC12 cells [4]): 20±7.1
number of differentiated cells (PC12 cells [5]; in combination with anti-TrkA antibody (1:2000)): 12.8±6.3
number of differentiated cells (PC12 cells [5]; treatment alone): 20.7±7.1
number of differentiated cells (PC12 cells [6]; plus LY294002 (10 μM), inhibitor of PI3K): 6.8±2.7
number of differentiated cells (PC12 cells [6]; plus PD98059 (50 μM), inhibitor of MAPK kinase): 2.1±1.9
number of differentiated cells (PC12 cells [6]; treatment alone): 20.7±7.1
protection of retinal ganglion cells (number of RGC vs glaucoma-placebo) [7]: significant protection of the ganglion cells

B1: G-CSF: positive control (2 μg/ml) in the in vitro model of ALS (protein, UniProt P09919 31-207, looked up)
Granulocyte …: TPLGPASSLPQSFLLKCLEQVRKIQGDGAALQEKLVSECATYKLCHPEELVLLGHSLGIPWAPLSSCPSQALQLAGCLSQLHSGLFLYQGLLQALEGISPELGPTLDTLQLDVADFATTIWQQMEELGMAPALQPTQGAMPAFASAFQRRAGGVLVASHLQSFLEVSYRVLRHLAQP
cell viability, percentage relative to the control without stress (NSC-34 cells): 76.50±8.3%

The remaining lines, values ahead:

Papp at 18 h [1]: 11.5 ×10⁻⁶ cm/s
Molecule: CC(C)NCC(O)COc1cccc2ccccc12 (stereo not shown) [propanolol]

Papp at 18 h [1]: 10.3 ×10⁻⁶ cm/s
Molecule: NC(=O)N1c2ccccc2C=Cc2ccccc21 [carbamazepine]
